Results taken from patent US12329735B2, “Azelaic acid esters in the treatment of insulin resistance” (NEW FRONTIER LABS, LLC, priority 2016, dated 2025).

Key:
[1] = Human clinical trial: safety and tolerability; format: in vivo
Procedure: To evaluate the safety and tolerability of diethyl azelate (immediate release form) when administered orally to insulin resistant adult male volunteers, and to evaluate the change from baseline of selected biomarkers and computational indices of dysmetabolism when diethyl azelate is administered orally to insulin resistant adult male volunteers.
A total of eight subjects were screened, out of which four subjects satisfied all the eligibility criteria. Three healthy male volunteers ranging between 18-50 years of age weighing between 80-120 kg were enrolled in the study. At screening, subjects were non-diabetic insulin resistant (NDIR) having a fasting plasma glucose of greater than 75 mg/dL and less than 126 mg/dL and have a compensatory hyperinsulinemia having a mean of two consecutive fasting insulin samples collected between 10 to 30 minutes apart of great than 12 μIU/mL. Subjects had no clinically significant illness that may affect glucose metabolism, insulin sensitivity or makes them otherwise unsuitable for inclusion in the study. Subjects had no history or ongoing significant abnormalities or diseases, in the areas, such as, endocrine, gastrointestinal, cardiovascular, hematological, renal, upper or lower respiratory, neoplasia. Subjects had no uncontrolled blood pressure of greater than 160/95 mmHg at screening. […] Subjects had not used antidiabetic or antihyperglycemic medications in the last 6 months. […]
Diethyl azelate (density of 0.973 g/mL at 25° C. or 973 mg/mL) was administered orally by needless syringes once a day at 1 mg/kg to each subject for 21 days starting at Day 1. The dose was calculated as described below, with standard rounding conventions applied to the nearest 0.01 mL: 1 mg/kg×Participant Weight (kg)×(1 mL/973 mg)=X mL to Dose
Additional marketed pharmaceutical products were administered as part of the study procedures or as challenge agents associated with the Oral Glucose Tolerance (OGTT). […] Subjects were evaluated with a baseline OGTT on Day 1 and a final OGTT on Day 21. […]

[2] = Human clinical trial: OGTT in non-diabetic insulin resistant adult males at Day 1 and Day 21; format: in vivo; details: for Percent change: Day-1 vs. Day-21 average blood glucose: (Day-1 − Day-21)/Day-21 ×100%; for OGTT Blood Glucose Level, Day-21 Group Average: after 21 days 1 mg/kg oral once a day, 3 subjects
Procedure: A total of eight subjects were screened, out of which four subjects satisfied all the eligibility criteria. Three healthy male volunteers ranging between 18-50 years of age weighing between 80-120 kg were enrolled in the study. At screening, subjects were non-diabetic insulin resistant (NDIR) having a fasting plasma glucose of greater than 75 mg/dL and less than 126 mg/dL and have a compensatory hyperinsulinemia having a mean of two consecutive fasting insulin samples collected between 10 to 30 minutes apart of great than 12 μIU/mL. Subjects had no clinically significant illness that may affect glucose metabolism, insulin sensitivity or makes them otherwise unsuitable for inclusion in the study. Subjects had no history or ongoing significant abnormalities or diseases, in the areas, such as, endocrine, gastrointestinal, cardiovascular, hematological, renal, upper or lower respiratory, neoplasia. Subjects had no uncontrolled blood pressure of greater than 160/95 mmHg at screening. […] Subjects had not used antidiabetic or antihyperglycemic medications in the last 6 months. Subjects had not used tobacco or nicotine containing products in the last 3 months. Subjects were not mentally or legally incapacitated. Subjects had no history of significant psychiatric disorder (within the last 10 years) and had no significant emotional problems at the time of the study. All subjects were evaluable for safety and all blood collections for pharmacokinetic analysis were collected as scheduled. All studies were performed with institutional review board approval and patient consent. The Board was constituted and operated in accordance with the principles and requirements described in the US Code of Federal Regulations (21 CFR Part 56). The board was ICH compliant. This study was an open label test/retest study measuring the change from baseline of selected biomarkers and computational indices of insulin sensitivity of the adult male volunteers in response to multiple doses of diethyl azelate. The study population was restricted to male participants in order to control for the variability associated with the menstrual cycle on the metabolic parameters of interest (Sheu, Chen et al. 2003). Baseline parameters were assessed followed by retest assessments at three weeks (21-days) post-dose. Diethyl azelate (density of 0.973 g/mL at 25° C. or 973 mg/mL) was administered orally by needless syringes once a day at 1 mg/kg to each subject for 21 days starting at Day 1. The dose was calculated as described below, with standard rounding conventions applied to the nearest 0.01 mL: 1 mg/kg×Participant Weight (kg)×(1 mL/973 mg)=X mL to Dose Additional marketed pharmaceutical products were administered as part of the study procedures or as challenge agents associated with the Oral Glucose Tolerance (OGTT). These include 75 g CHO (carbohydrate) Glucola and small volumes of 0.9% Normal Saline administered intravenously secondary to blood collection. Subjects were evaluated with a baseline OGTT on Day 1 and a final OGTT on Day 21. Safety assessments were performed on each subject during the course of the study including clinical examination, vital signs recording, ECG recording, adverse event (AE) monitoring, and concomitant medication assessment. An Oral Glucose Tolerance Test (OGTT) was performed at baseline on Day 1 and Day 21. The OGTT was performed after a fast greater than eight hours and consisted of eight blood collections. Subjects were administrated a bottle of Glucola drink (containing 50% dextrose I 75 g dextrose in 150 mL solution; available as GlucoCrush™) over a course of five minutes, starting at T=0 (first sip of the Glucola). Two blood-draws occurred ˜30 minutes and just prior (˜0 minute) to administration of the Glucola. Post-meal blood collection occurred at 30, 60, 90, 120, and 180 minutes. Samples for glucose and exploratory PK and biomarker samples were collected at all timepoints associated with the OGTT. […]

[3] = Oral glucose tolerance test in ethanol-induced insulin resistance state, human self-study; format: in vivo
[4] = test system: PAMP receptors (Toll-Like Receptors) on dendritic cells; test: PAMP receptor agonist-induced signaling in dendritic cells; format: cell-based; details: 0.5% DEA, 24 hours
Procedure: The azelates modulated broad-range signaling of pathogen-associated molecular patterns (PAMP) receptors: Toll-Like Receptors (TLRs) are a class of PAMP receptors. Various PAMP receptor agonists (ligands); nineteen discrete entities, were added to dendritic cells along with 0.5% diethyl azelate (DEA) and measured levels of 34 signaling molecules (ATP, cytokines, chemokines) produced by the cells after 24 hours. To assess if DEA affected PAMP receptor signaling, the ratios of the levels of these molecules were calculated in treated and untreated cells. If DEA had no effect, these ratios would be equal to 1. […] A similar effect of DEA was observed on the ratios of other signaling molecules.

[5] = test system: EpiDerm 3-D human skin tissue; test: EpiDerm 3-D human skin tissue exposed to croton oil plus azelates, multiplex immunoassays of 47 markers; format: cell-based; details: croton oil + azelate, 24 hours; medium and tissue lysates
Procedure: EpiDerm 3-D human skin tissue (MatTek) was exposed to an irritant, croton oil+the azelates for 24 hours. Levels of 47 cytokines and other signaling molecules were measured in cultured media and tissue lysates using multiplex immunoassays. Relative % differences in levels of select markers in medium and tissues after treatment with croton oil plus azelates versus croton oil alone were graphed as heat maps displaying statistically significant/nearly significant differences and distinct patterns of marker modulation. The azelates also exerted chemoprotective activity against croton oil damage on microscopic examination.

[6] = oral 1 mg/kg once a day, 21 days, three subjects

## CCOC(=O)CCCCCCCC(=O)OCC [diethyl azelate]
[1]; [6]
  adverse events observed: loose stools in one subject
  drug-related changes in physical examinations, vital signs, or electrocardiograms (ECGs): no clinically meaningful drug-related changes
[1]; oral, three male subjects
  tolerability: well tolerated
[2]; 0 min
  Percent change: Day-1 vs. Day-21 average blood glucose: 6.5%
  OGTT Blood Glucose Level, Day-21 Group Average: 94.5 mg/dL
[2]; 30 min
  Percent change: Day-1 vs. Day-21 average blood glucose: 14.5%
  OGTT Blood Glucose Level, Day-21 Group Average: 148.0 mg/dL
[2]; 60 min
  Percent change: Day-1 vs. Day-21 average blood glucose: 15.7%
  OGTT Blood Glucose Level, Day-21 Group Average: 142.3 mg/dL
[2]; 90 min
  Percent change: Day-1 vs. Day-21 average blood glucose: 46.3%
  OGTT Blood Glucose Level, Day-21 Group Average: 105.8 mg/dL
[2]; 120 min
  Percent change: Day-1 vs. Day-21 average blood glucose: 15.1%
  OGTT Blood Glucose Level, Day-21 Group Average: 99.2 mg/dL
[2]; 180 min
  Percent change: Day-1 vs. Day-21 average blood glucose: 18.6%
  OGTT Blood Glucose Level, Day-21 Group Average: 71.2 mg/dL
[2]; all three subjects, after 21 days of treatment
  insulin metabolism profile after treatment: normal healthy insulin metabolism profiles
[2]; at T=30 mins and 60 mins, pre-treatment 164 to 170 mg/dl
  average blood glucose levels after the 3-weeks treatment course: below 150 mg/dl
[2]; −5 min
  Percent change: Day-1 vs. Day-21 average blood glucose: 6.2%
  OGTT Blood Glucose Level, Day-21 Group Average: 94.0 mg/dL
[2]; −30 min
  Percent change: Day-1 vs. Day-21 average blood glucose: 6.0%
  OGTT Blood Glucose Level, Day-21 Group Average: 94.1 mg/dL
[3]; fasting (t=0), p=0.02
  percentage decrease of glucose levels vs untreated control state (ethanol-induced insulin resistance): 13.6%
[3]; human self-study, 50 ml ethanol, 1 mg/kg oral 8 hours prior to OGTT (75 g glucose), 0, 1, 2, 4 hours
  change in blood glucose in induced insulin resistance state (OGTT): significant decrease of glucose at the baseline (fasting) and highly significant (p<0.0001) at the peak postprandial time point at 2 hours
[3]; t=1 hour, statistically not significant
  percentage decrease of glucose levels vs untreated control state (ethanol-induced insulin resistance): 11.4%
[3]; t=2 hours, p=6×10−6
  percentage decrease of glucose levels vs untreated control state (ethanol-induced insulin resistance): 36.7%
[3]; t=4 hours, not statistically significant
  increase in glucose level vs untreated control state (ethanol-induced insulin resistance): 8.8%
[4]
  signaling induced by TLR agonists (ATP ratio treated/untreated cells): decreased signaling induced by most TLR agonists
[4]; 34 signaling molecules
  effect on signaling of PAMP receptors: affected signaling of all PAMP receptors but the effect was greater for the receptors localized on the cell surface than for these inside the cell
[5]
  cytokine levels (IL-1 a, IL-6, IL-8, TNF-a) versus croton oil alone: downregulated multiple cytokines relevant to T2D including IL-1 a, IL-6, IL-8, and TNF-a
